Measurements reported in patent US20210275518A1, “METHODS OF USING REBASTINIB IN THE TREATMENT OF DISORDERS” (Deciphera Pharmaceuticals, LLC, priority 2020, published 2021).

Legend:
Type in all cases: in vivo, human
[1] = tested on: ovarian cancer; assay: Phase 1b/2 rebastinib + paclitaxel, Part 2 Cohort 3 (RECIST v1.1, CA-125 response)
Excerpt: (§1) Upon determination of the RP2D, Part 2 is initiated to dose up to 165 evaluable patients using the RP2D across five indication-specific cohorts. A Simon's two-stage design is applied to Part 2 to further evaluate the safety, tolerability, and preliminary efficacy of rebastinib in combination with paclitaxel in triple-negative breast (Cohort 1), inflammatory breast (Cohort 2), ovarian (Cohort 3), endometrial adenocarcinoma (Cohort 4), and gynecologic carcinosarcoma (Cohort 5) cancers. Each cohort initially enrolls up to 18 evaluable patients in the first stage. Patients must receive at least 1 dose of the combination and have 1 post-baseline assessment (including assessment of clinical progression) or be discontinued prior to the postbaseline disease assessment due to an AE at least possibly related to rebastinib, to be considered evaluable. Tumor response is assessed according to Response Evaluation Criteria in Solid Tumors (RECIST) Version 1.1. The decision to enroll patients beyond the first stage is based on response assessments obtained after the first post-dose response assessment of the last patient enrolled in the first stage of a cohort. […] If ≤4 responses are seen in a cohort, the cohort will be terminated. If >4 responses are seen prior to the last evaluable patient in the first stage, expanding the cohort may be triggered earlier. Enrollment in each cohort will pause between the first and second stage of the Simon two-stage for evaluation of response. Patients will receive study treatment until they develop progressive disease, experience unacceptable toxicity, or withdraw consent.
29 patients with ovarian cancer were enrolled in this portion of the study as a safety population. Patients were treated with rebastinib (50 or 100 mg BID) in combination with 80 mg/m^2 intravenous weekly paclitaxel (day 1, day 8, and day 15 of repeated 28-day cycles). 10 of the patients treated with rebastinib were at a starting dose of 100 mg BID and 80 mg/m^2 weekly paclitaxel, of which the doses of 7 were reduced to 50 mg BID and 80 mg/m^2 weekly paclitaxel, and […] were at a starting dose of 50 mg BID and 80 mg/m^2 weekly paclitaxel. 23 (79%) patients received ≥4 prior anticancer regimens, and all patients received prior platinum and taxane-based therapy; 89% received anti-angiogenic therapy, 62% received anti-PARP therapy, and 31% received immunotherapy.
24 of the 29 patients met the modified intention-to-treat (mITT) criteria. Anti-tumor activity was assessed using RECIST v1.1 and Gynecological Cancer Intergroup CA-125 response. From 24 patients in the mITT population, the objective response rate was 38% and the clinical benefit rate at 8 weeks was 88%.
38 patients in a platinum-resistant ovarian cancer cohort were enrolled in this portion of the study as a safety population. Patients were treated with rebastinib (50 or 100 mg BID) in combination with 80 mg/m^2 intravenous weekly paclitaxel (day 1, day 8, and day 15 of repeated 28-day cycles). 34 of the 38 patients met the met the modified intention-to-treat (mITT) criteria. 27 (71%) patients received ≥4 prior anticancer regimens, and 97% patients received prior platinum and taxane-based therapy; 84% received bevacizumab, 66% received a PARP inhibitor, 31% received immunotherapy, and the average number of lines of therapy after platinum resistance was 2.

[2] = tested on: advanced or metastatic solid tumors; assay: Phase 1b/2 study of rebastinib in combination with paclitaxel (Part 1; overall safety)
Excerpt: This is an open-label Phase 1b/2 multicenter study in patients with advanced or metastatic solid tumors where paclitaxel may be considered appropriate treatment. Rebastinib will be administered in combination with paclitaxel in repeated 28-day cycles to primarily assess the safety, tolerability and preliminary efficacy of the combination. Adverse events (AEs) will be assessed, and laboratory values, vital sign measurements, electrocardiograms (ECGs), ophthalmologic examinations, physical examinations and Eastern Cooperative Oncology Group (ECOG) Performance Status (PS) will be obtained to evaluate the safety and tolerability of rebastinib when administered in combination with paclitaxel. Pharmacokinetic (PK) and pharmacodynamic (PD) samples will be collected at pre-specified time points.
The study consists of two parts (Part 1 and Part 2). In Part 1, patients were assigned to one of two pre-defined dose levels of rebastinib (50 or 100 mg BID) in combination with paclitaxel administered by intravenous (IV) infusion at 80 mg/m^2. Paclitaxel is to be administered by IV infusion at 80 mg/m^2 over approximately 60 minutes on Day 1, Day 8 and Day 15 of repeated 28-day cycles. Rebastinib is to be administered orally prior to the paclitaxel infusion.
Each arm was planned to enroll at least 12 evaluable patients. Additionally, if rebastinib at 100 mg BID was deemed unsafe, an additional arm dosing at 75 mg BID of rebastinib in combination with paclitaxel may be initiated. Up to 36 evaluable patients were dosed in Part 1. Safety was continuously monitored, and any arm may be terminated early if deemed unsafe by the Sponsor.
Safety and tolerability, PK and PD, and preliminary efficacy data obtained in Part 1 was used to determine the RP2D. Data for at least 12 evaluable patients through Cycle 1 must be available in an arm to declare the dose as the RP2D. Patients must receive ≥80% of planned doses of rebastinib and paclitaxel in Cycle 1 to be considered as evaluable. Enrollment of patients was paused for determination of the RP2D prior to initiation of Part 2. An RP2D was chosen by the Sponsor in consultation with the Investigators.

[3] = tested on: inflammatory breast cancer; assay: Phase 1b/2 rebastinib + paclitaxel, Part 2 Cohort 2 (RECIST v1.1)
Excerpt: as §1

[4] = Cohort 3, time point 1, of the twelve with stable disease at Cycle 3, Day 1, Cycle 5, Day 1
[5] = Cohort 3, time point 1, rebastinib + paclitaxel, Cycle 3, Day 1
[6] = Cohort 3, time point 2, 17 evaluable patients
[7] = Table 1, Cohort 3, time point 4, mITT N = 34, patients (%)
[8] = Table 1, Cohort 3, time point 4, n 12

CNC(=O)c1cc(Oc2ccc(NC(=O)Nc3cc(C(C)(C)C)nn3-c3ccc4ncccc4c3)c(F)c2)ccn1 [rebastinib] was tested, and the “Patients with partial response” value [1, 4] was “three”, the “Patients with stable disease” value [1, 4] was “four” and the “Patients with partial response (second statement)” value ([1]; Cohort 3, time point 1, of the twelve with stable disease at Cycle 3, Day 1, Cycle 5, Day 1 (stated a second time)) was “one”. The “Patients with stable disease” value ([1]; Cohort 3, time point 1, of the twelve with stable disease at Cycle 3, Day 1, Cycle 5, Day 8) was “one”, the “Patients with stable disease” value ([1]; Cohort 3, time point 1, of the twelve with stable disease at Cycle 3, Day 1, Cycle 8, Day 1) was “two” and the “Patients with partial response” value ([1]; Cohort 3, time point 1, of the two with partial response at Cycle 3, Day 1, Cycle 5, Day 1) was “one”. The “Patients with partial response” value [1, 5] was “Two”, the “Patients with stable disease” value [1, 5] was “twelve” and the CBR [1, 6] was 82%. For the same molecule, the ORR [1, 6] was 29%, the Stable diseases [1, 6] was 9 and the Partial responses ([1]; Cohort 3, time point 2, 17 evaluable patients, rebastinib 100 or 50 mg BID + paclitaxel) was 5. For the same molecule, the “Muscular weakness, patients” value ([1]; Cohort 3, time point 2, initially 100 mg BID rebastinib (10 patients)) was 4 patients, the “Muscular weakness at reduced dose” value ([1]; Cohort 3, time point 2, reduced dose of 50 mg BID) was “No additional muscular weakness” and the “CA-125 response, patients” value ([1]; Cohort 3, time point 3, 17 patients with CA-125 measurements) was 10 (59%). For the same molecule, the “Clinical benefit rate at 8 weeks” value ([1]; Cohort 3, time point 3, 24 patients mITT) was 88%, the Objective response rate ([1]; Cohort 3, time point 3, 24 patients mITT, rebastinib 50 or 100 mg BID with weekly paclitaxel 80 mg/m^2) was 38% and the CA-125 response ([1]; Cohort 3, time point 4, 17 of 26 evaluable patients) was 65.4%. The “Clinical benefit rate at 8 weeks” value ([1]; Cohort 3, time point 4, 34 patients mITT) was 88%, the “Objective response rate (confirmed+unconfirmed)” value ([1]; Cohort 3, time point 4, platinum-resistant ovarian cancer, 34 patients mITT, rebastinib 50 or 100 mg BID with weekly paclitaxel 80 mg/m^2) was 35% and the “Best Overall Response: Confirmed Partial Response” value [1, 7] was 5 (14.7%). The “Best Overall Response: Not Evaluable” value [1, 7] was 3 (8.8%), the “Best Overall Response: Partial Response” value [1, 7] was 12 (35.3%) and the “Best Overall Response: Progressive Disease” value [1, 7] was 1 (2.9%). The “Best Overall Response: Single Response Awaiting Confirmation” value [1, 7] was 4 (11.8%), the “Best Overall Response: Stable Disease” value [1, 7] was 18 (52.9%) and the “Best Overall Response: Unconfirmed Single Response” value [1, 7] was 3 (8.8%). For the same molecule, the “Duration of Response, Events (%)” value [1, 8] was 5 (41.7%), the “Time to Response, Mean (SD)” value [1, 8] was 3.1 (1.3) and the “Duration of Response, Kaplan-Meier Median (80% CI)” value ([1]; Table 1, Cohort 3, time point 4, n 12, NE: Not evaluated) was 5.5 (1.9, NE). For the same molecule, the “Partial response, patients” value ([2]; Part 1, rebastinib 50 mg BID with weekly paclitaxel 80 mg/m^2) was 5 patients, the “Partial response, patients” value ([2]; Part 1, rebastinib 100 mg BID with weekly paclitaxel 80 mg/m^2) was 3 patients and the “Partial response, patients total” value ([2]; Part 1, rebastinib 50 and 100 mg BID with weekly paclitaxel 80 mg/m^2) was 8 patients. For the same molecule, the Tolerability ([2]; Part 1, rebastinib 50 and 100 mg BID with weekly paclitaxel 80 mg/m^2, patients with advanced tumors) was “generally well tolerated”, the Muscular weakness ([2]; rebastinib 100 mg BID with weekly paclitaxel 80 mg/m^2, required dose reduction to 50 mg BID) was “high incidence” and the “Patients with partial response” value ([3]; Cycle 3, Day 1) was “two”. For the same molecule, the “Patients with stable disease” value ([3]; Cycle 3, Day 1) was “one”, the “Patients with partial response” value ([3]; Cycle 3, Day 1, Cycle 5, Day 1, and Cycle 8, Day 1) was “one” and the “Patients with stable disease” value ([3]; both Cycle 3, Day 1 and Cycle 5, Day 1) was “one”.
